Data reported in patent publication US20240025899A1, “TRIHETEROCYCLIC DERIVATIVE, AND PHARMACEUTICAL COMPOSITION AND APPLICATION THEREOF” (SHANGHAI DE NOVO PHARMATECH CO., LTD., priority 2020, published 2024).
Structures can show the parent of a compound that is named as a salt. Where two headings read alike, the source gives them in different places.

How the values were obtained:
CYP2C19 = CYP2C19 (Homo sapiens (Human), UniProt P33261); test: Cytochrome oxidase P450 inhibition study, CYP2C19; assay type: in vitro ADME; conditions: human liver microsomes; read-out: IC50 2C19
Sequence of CYP2C19 (P33261 whole entry): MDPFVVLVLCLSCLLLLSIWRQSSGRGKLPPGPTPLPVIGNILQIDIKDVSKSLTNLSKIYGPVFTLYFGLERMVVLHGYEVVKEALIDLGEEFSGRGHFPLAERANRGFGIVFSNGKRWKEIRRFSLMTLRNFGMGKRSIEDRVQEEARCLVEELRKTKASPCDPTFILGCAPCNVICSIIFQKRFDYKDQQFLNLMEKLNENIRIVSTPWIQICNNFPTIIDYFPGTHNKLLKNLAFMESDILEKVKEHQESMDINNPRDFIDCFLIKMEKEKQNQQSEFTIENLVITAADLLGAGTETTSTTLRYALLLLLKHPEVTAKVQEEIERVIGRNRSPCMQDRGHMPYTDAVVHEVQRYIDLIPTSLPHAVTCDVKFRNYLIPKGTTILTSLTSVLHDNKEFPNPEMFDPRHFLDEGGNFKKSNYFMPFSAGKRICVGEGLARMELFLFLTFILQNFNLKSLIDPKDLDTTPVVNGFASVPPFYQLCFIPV
Method: (§1) LC-MS/MS methods were used to evaluate the inhibitory effects of compounds on CYP2C19, 2D6 and 3A4 subtypes. In this method, the test compound was mixed with a solution of human liver microsomes containing CYP model substrates, and incubated together under the addition of NADPH, then the inhibitory IC50 of the compound on CYP2C19, 2D6 and 3A4 was calculated by measuring the amount of metabolites of the model substrate in the reaction solution. The specific experimental method is as follows:
(§2) Compounds to be tested were prepared as stock solutions at 10 mM concentration with DMSO and then diluted to 4 mM with acetonitrile solution. At the same time, the corresponding reference inhibitor solutions for CYP subtypes were prepared, for example, the reference inhibitor was Ketoconazole, then these two compounds were prepared separately ([…] of inhibitor DMSO stock solution+[…] of acetonitrile), and the samples prepared under the above conditions were at 400× concentration. Then, the above solution was 3-fold diluted with DMSO/acetonitrile mixture (v/v: 40/60) to prepare the final test solution, and seven concentration points were set for each test compound, and the initial test final concentration was 10 μM. […]
(§3) […] of human liver microsome solution (0.2 mg/mL) was added to each well containing the test compound in the 96-well plate, and then 2 mL of the final test sample of test compounds prepared by serial dilution as described above was added thereto; for each well corresponding to the reference inhibitors, […] of human liver microsome solution (0.2 mg/mL) and 1 mL of the final test sample were added. […] The inhibition rate was determined by comparing the amount of model substrate metabolites at each test concentration without test substance addition, in the GraphPad Prism 5.0 software, the logarithm of the test concentration was used as the abscissa and the inhibition rate was used as the ordinate to perform a linear regression (Sigmoidal (non-linear) dose-response model) analysis to obtain the IC50 value of the test compound.

ATR/ATRIP kinase = ATR/ATRIP kinase (Homo sapiens (Human), UniProt Q13535); test: ATR enzyme assay (HTRF, phosphorylation of substrate protein P53); assay type: biochemical; conditions: substrate P53, TR-FRET
Sequence of ATR/ATRIP kinase (Q13535 whole entry): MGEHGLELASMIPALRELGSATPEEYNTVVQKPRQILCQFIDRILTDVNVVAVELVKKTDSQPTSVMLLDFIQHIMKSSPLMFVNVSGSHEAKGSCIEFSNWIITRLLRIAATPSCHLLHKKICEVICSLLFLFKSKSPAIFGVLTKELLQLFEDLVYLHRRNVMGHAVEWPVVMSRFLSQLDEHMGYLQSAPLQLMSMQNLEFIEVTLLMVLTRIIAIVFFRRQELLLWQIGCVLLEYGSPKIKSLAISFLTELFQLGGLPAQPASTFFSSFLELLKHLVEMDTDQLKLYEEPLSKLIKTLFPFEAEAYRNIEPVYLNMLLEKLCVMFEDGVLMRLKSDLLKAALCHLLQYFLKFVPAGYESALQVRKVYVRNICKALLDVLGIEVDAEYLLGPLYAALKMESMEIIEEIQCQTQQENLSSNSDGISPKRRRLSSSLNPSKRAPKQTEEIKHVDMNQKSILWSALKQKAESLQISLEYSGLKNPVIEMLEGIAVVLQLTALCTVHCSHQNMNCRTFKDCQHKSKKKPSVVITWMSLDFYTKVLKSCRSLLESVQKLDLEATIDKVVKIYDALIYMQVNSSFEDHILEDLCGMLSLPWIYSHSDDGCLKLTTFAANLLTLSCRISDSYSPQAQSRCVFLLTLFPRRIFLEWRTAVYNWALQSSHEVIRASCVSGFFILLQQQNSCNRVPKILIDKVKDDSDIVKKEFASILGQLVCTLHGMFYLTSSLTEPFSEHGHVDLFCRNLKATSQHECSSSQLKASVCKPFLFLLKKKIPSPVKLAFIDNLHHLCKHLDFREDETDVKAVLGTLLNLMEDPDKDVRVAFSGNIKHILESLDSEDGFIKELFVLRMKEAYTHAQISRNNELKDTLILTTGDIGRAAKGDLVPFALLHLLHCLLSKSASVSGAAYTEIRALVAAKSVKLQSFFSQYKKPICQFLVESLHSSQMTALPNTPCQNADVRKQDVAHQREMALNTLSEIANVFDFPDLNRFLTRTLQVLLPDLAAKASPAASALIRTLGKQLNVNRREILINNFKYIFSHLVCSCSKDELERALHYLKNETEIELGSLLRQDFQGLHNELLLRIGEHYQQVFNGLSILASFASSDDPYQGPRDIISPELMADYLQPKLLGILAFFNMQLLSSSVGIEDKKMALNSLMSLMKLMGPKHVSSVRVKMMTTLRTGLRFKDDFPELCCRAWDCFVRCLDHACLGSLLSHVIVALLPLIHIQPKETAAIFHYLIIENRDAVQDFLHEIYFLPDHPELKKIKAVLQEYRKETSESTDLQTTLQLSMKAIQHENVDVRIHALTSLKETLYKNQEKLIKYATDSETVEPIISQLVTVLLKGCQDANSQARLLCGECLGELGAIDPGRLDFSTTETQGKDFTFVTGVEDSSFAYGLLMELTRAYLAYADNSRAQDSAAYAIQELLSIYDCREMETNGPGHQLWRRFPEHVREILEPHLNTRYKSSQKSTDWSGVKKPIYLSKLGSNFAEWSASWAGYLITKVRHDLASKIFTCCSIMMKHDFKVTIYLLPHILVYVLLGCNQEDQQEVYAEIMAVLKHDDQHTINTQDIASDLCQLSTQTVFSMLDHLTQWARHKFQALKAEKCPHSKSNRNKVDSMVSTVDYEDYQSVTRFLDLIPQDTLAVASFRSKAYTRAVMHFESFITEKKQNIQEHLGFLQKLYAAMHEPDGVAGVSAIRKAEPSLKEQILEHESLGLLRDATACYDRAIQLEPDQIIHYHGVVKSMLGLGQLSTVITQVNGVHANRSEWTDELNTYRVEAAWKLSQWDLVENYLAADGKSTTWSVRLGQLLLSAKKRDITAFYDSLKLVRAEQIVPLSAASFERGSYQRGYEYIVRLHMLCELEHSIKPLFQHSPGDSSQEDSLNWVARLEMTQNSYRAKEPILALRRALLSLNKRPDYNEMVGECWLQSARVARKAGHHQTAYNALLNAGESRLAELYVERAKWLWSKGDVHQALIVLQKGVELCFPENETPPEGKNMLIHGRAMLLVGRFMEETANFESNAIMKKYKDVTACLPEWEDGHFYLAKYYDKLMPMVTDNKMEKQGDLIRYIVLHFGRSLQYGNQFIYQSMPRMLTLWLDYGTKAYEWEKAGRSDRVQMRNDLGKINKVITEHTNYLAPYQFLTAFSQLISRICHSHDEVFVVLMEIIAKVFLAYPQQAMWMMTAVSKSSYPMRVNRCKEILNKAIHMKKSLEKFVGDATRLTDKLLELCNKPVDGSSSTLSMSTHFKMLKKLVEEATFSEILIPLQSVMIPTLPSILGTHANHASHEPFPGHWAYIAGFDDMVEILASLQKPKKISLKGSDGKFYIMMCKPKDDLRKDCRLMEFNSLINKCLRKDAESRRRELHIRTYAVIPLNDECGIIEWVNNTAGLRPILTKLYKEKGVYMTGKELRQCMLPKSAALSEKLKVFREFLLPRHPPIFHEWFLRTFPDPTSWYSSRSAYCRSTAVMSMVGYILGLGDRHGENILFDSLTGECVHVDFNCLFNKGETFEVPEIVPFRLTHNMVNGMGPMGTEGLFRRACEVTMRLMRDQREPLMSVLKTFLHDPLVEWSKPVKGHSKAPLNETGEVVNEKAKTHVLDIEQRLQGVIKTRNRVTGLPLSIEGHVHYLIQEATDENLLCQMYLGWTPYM
Sequence of ATR/ATRIP kinase (Q8WXE1 whole entry partner): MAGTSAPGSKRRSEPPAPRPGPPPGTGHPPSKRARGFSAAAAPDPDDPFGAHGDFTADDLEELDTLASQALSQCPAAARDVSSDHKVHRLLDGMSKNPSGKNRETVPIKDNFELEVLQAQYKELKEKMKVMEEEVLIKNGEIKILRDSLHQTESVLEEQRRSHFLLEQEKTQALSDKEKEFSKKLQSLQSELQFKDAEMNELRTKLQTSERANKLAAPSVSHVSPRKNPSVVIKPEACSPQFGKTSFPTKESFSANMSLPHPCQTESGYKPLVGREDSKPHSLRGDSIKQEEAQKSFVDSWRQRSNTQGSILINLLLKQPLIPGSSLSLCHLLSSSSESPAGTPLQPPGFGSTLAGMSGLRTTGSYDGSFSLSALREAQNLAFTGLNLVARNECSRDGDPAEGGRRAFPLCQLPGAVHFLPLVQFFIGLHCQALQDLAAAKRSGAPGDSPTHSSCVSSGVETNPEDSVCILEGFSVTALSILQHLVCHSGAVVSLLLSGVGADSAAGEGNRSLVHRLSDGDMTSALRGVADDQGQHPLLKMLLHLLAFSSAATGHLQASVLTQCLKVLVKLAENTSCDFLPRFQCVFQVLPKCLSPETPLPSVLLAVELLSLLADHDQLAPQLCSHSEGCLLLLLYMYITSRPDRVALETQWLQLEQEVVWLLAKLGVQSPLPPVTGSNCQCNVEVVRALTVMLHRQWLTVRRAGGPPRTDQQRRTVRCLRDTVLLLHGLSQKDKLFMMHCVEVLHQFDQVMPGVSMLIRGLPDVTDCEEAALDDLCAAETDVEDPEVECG
Method: In this experiment, the phosphorylation level of substrate protein P53 (Eurofins, 14-952) was detected by HTRF technology to measure the activity of ATR/ATRIP (Eurofins, 14-953) kinase. Reaction buffer (25 mM HEPES pH 8.0, 0.01% Brij-35, 1% Glycerol, 5 mM DTT, 1 mg/mL BSA), termination buffer (12.5 mM HEPES pH 8.0, 0.005% Brij-35, 0.5% Glycerol, 250 mM EDTA) and assay buffer (50 mM HEPES pH 7.0, 150 mM NaCl, 267 mM KF, 0.1% sodium cholate, 0.01% Tween 20) were prepared in advance. ATR/ATRIP was diluted with reaction buffer to a working solution of 2 ng/μL, and the substrate protein P53 was diluted with reaction buffer to a working solution of 80 nM, and 4 nM of ATP (Sigma, A2383) working solution (containing 40 mM MnCl2) was prepared with reaction buffer. The compound was 3-fold diluted with DMSO, then diluted with reaction buffer into a working solution, then added to a 384-well plate at 2.5 μL/well, and centrifuged at 1500 rpm for 40 s. Then 2.5 μL of ATR/ATRIP working solution, P53 working solution and ATP working solution were added into the 384-well plate, centrifuged at 1500 rpm for 40 s and reacted at room temperature for 30 minutes. After the reaction was completed, 5 μL of termination buffer was added to each well, and centrifuged at 1500 rpm for 40 s. Antibody working solution containing 0.083 μg/mL anti-phospho-p53 (Ser15)-K (CisBio, cat. 61P08KAE) and 5 μg/mL anti-GST-d2 (CisBio, cat. 61GSTDLA) was prepared with assay buffer and added to the 384-well plate at 5 μL/well, then centrifuged at 1500 rpm for 40 s and reacted overnight at room temperature. Microplate reader (Tecan, Infinite M1000 Pro) was used to detect TR-FRET, and the data were analyzed with Graphpad software, and the four-parameter equation was used to fit the curve and calculate the IC50 value of the inhibitor (Table 1).

hERG channel = hERG channel (Homo sapiens (Human), UniProt Q12809); test: Cardiac safety evaluation, hERG study (QPatch whole-cell recording); assay type: cell-based; conditions: CHO cell line expressing hERG channel
Method: In this experiment, a CHO cell line stably transfected with hERG cDNA and expressing p15 hERG channel was used. Cells were incubated at 37° C. in a humidified incubator containing 5% CO2 in medium (Ham's F12, 10% v/v FBS, 100 μg/mL hygromycin B, 100 μg/mL geneticin) (from Invitrogen). Cells were grown under the above conditions and reached approximately 80-90% of the confluency. Cells were treated with Detachin (Genlantis) for 3 to 5 minutes. The medium was titrated 15 to 20 times at 37° C., and then the cells were resuspended in CHO-S-SFM II medium (serum-free medium, Invitrogen) buffered with HEPES (25 mM). Cells used for QPatch studies must meet the following criteria: Most suspension cells should be single and isolated under microscopy; viability should be greater than 95%; cell density in the final suspension should be in the range of 3 to 8×10^6 cells/mL before application to the QPatch stir chamber. Cells meeting the above conditions can be used for recordings within 4 hours of harvest.
Test compounds were made into 10 mM DMSO stock solutions. Six doses (30, 10, 3, 1, 0.3 and 0.1 μM) were selected to obtain the fitted curves and IC50. The final DMSO concentration was 0.1% or less. The IC50 of the positive control cisapride was assessed at doses of 3, 1, 0.3, 0.1, 0.03 and 0.01 μM, respectively. Composition of […] for electrophysiological recordings: CaCl2 2 mM, MgCl2 1 mM, KCl 4 mM, NaCl 145 mM, Glucose 10 mM, HEPES 10 mM, pH 7.4 (NaOH), composition of external solution: CaCl2 […], MgCl2 1.75 mM, KCl 120 mM, HEPES 10 mM, EGTA 5 mM, Na-ATP 4 mM, pH 7.25 (KOH) (all reagents used were from sigma).
Whole-cell recordings were performed using automated QPatch (Sophion Biosciences, Denmark). Cells were recorded for 120 s to assess current stability. The above voltages were then applied to the cells every 15 s throughout the procedure. […]
The data were analyzed with Sophion Assay software (determination software V5.0), Microsoft Excel and Graphpad Prism 5.0 to obtain IC50 of compounds.

CYP3A4 = CYP3A4 (Homo sapiens (Human), UniProt P08684); test: Cytochrome oxidase P450 inhibition study, CYP3A4; assay type: in vitro ADME; conditions: human liver microsomes
Sequence of CYP3A4 (P08684 whole entry): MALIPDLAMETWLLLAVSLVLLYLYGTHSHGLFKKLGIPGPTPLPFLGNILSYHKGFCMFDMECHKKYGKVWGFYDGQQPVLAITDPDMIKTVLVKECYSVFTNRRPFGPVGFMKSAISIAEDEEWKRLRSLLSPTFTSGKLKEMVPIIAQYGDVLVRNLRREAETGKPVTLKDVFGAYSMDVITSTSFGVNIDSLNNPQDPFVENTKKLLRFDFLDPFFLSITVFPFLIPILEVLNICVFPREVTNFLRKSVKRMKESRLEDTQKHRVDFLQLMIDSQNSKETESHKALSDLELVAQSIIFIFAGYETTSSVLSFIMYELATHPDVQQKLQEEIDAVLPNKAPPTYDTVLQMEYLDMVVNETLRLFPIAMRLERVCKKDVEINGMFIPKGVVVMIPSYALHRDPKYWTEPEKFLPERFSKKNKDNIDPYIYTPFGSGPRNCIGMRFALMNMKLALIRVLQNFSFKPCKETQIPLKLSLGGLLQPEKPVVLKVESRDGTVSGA
Method: as §1
Compounds to be tested were prepared as stock solutions at 10 mM concentration with DMSO and then diluted to 4 mM with acetonitrile solution. At the same time, the corresponding reference inhibitor solutions for CYP subtypes were prepared, for example, the reference inhibitor was Ketoconazole, then these two compounds were prepared separately ([…] of inhibitor DMSO stock solution+[…] of acetonitrile), and the samples prepared under the above conditions were at 400× concentration. Then, the above solution was 3-fold diluted with DMSO/acetonitrile mixture (v/v: 40/60) to prepare the final test solution, and seven concentration points were set for each test compound, and the initial test final concentration was 10 μM. NADPH, CYP enzyme model substrate and human liver microsome solution were diluted to appropriate concentrations with pre-warmed potassium phosphate buffer (0.1 M, pH 7.4), respectively. The human liver microsome solution was purchased from BD Gentest (20 mg/mL, Corning, article number #452161).
[…] of human liver microsome solution (0.2 mg/mL) was added to each well containing the test compound in the 96-well plate, and then 2 mL of the final test sample of test compounds prepared by serial dilution as described above was added thereto; for each well corresponding to the reference inhibitors, […] of human liver microsome solution (0.2 mg/mL) and 1 mL of the final test sample were added. […] of the prepared corresponding model substrate was dispensed into a 96-well plate, and the microsome solution was mixed evenly, then 30 mL of the test compound/reference inhibitor-human liver microsome mixture was taken and transferred to the 96-well plate containing the substrate, and the mixture was mixed well and preheated at 37° C. for 5 minutes, then […] of 8 mM NADPH solution preheated at 37° C. was added thereto to start the reaction. A duplicate well control and a blank control without the addition of test substances were set at the same time. The 96-well plate containing a total volume of […] of reaction solution was incubated at 37° C. After the incubation, 120 μL of cold acetonitrile solution containing internal standard was added to each well to terminate the reaction, and then the 96-well plate was shaked on a microplate shaker for 5 minutes (600 rpm/min), and put into a centrifuge and centrifuged for 20 minutes at 6000 rpm, 4° C. Then 40 μL of supernatant from each well was transferred to another 96-well plate, and 80 μL of ultrapure water was added to each well, put into a shaker and mixed for 5 minutes (600 rpm/min), and centrifuged at 6000 rpm, 4° C., for 20 minutes. Then LC-MS/MS detection was performed. The inhibition rate was determined by comparing the amount of model substrate metabolites at each test concentration without test substance addition, in the GraphPad Prism 5.0 software, the logarithm of the test concentration was used as the abscissa and the inhibition rate was used as the ordinate to perform a linear regression (Sigmoidal (non-linear) dose-response model) analysis to obtain the IC50 value of the test compound.

CYP2D6 = CYP2D6 (Homo sapiens (Human), UniProt P10635); test: Cytochrome oxidase P450 inhibition study, CYP2D6; assay type: in vitro ADME; conditions: human liver microsomes; read-out: IC50 2D6
Sequence of CYP2D6 (P10635 whole entry): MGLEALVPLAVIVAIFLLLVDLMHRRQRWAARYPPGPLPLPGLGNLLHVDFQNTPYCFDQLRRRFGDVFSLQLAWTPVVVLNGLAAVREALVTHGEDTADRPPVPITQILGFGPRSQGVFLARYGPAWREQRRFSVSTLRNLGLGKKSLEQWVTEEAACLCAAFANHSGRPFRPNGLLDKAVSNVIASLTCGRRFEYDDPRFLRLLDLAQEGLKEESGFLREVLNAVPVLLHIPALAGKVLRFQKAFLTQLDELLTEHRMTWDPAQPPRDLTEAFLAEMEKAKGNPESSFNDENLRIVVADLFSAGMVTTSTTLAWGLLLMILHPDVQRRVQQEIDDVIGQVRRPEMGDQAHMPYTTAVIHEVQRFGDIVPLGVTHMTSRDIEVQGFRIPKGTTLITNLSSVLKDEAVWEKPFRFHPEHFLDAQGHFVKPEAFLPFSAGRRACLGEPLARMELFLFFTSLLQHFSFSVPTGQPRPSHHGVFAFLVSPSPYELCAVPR
Method: as §1, §2, §3

IC50 (CYP2C19): > 10 µM
IC50 (ATR/ATRIP kinase): 0.00051 µM
IC50 (CYP3A4; substrate Midazolam, read-out: IC50 3A4 (Midazolam)): > 10 µM
IC50 (CYP3A4; substrate Testosterone, read-out: IC50 3A4 (Testosterone)): > 10 µM
IC50 (CYP2D6): > 10 µM
Structure (SMILES): C[C@@H]1COCCN1c1nc2c(cnn2-c2cc[nH]n2)c2c1ccn2S(=O)(=O)N(C)C [Compound 3, (R)—N,N-dimethyl-4-(3-methylmorpholino)-6-(1H-pyrazol-3-yl)pyrazolo[3,4-b]pyrrolo[2,3-d]pyridine-1(6H)-sulfonamide trifluoroacetate]
IC50 (hERG channel): > 30 µM
